Among the data in patent publication US20230348450A1, “CARBOXYLIC ACID-CONTAINING COMPOUNDS AS MODULATORS OF BIS-PHOSPHOGLYCERATE MUTASE FOR THE TREATMENT OF SICKLE CELL DISEASE” (Genzyme Corporation, priority 2020, published 2023) are IC50 and EC50 values, retold here.

One assay deals with hBPGM (Homo sapiens (Human), UniProt P07738). The assay can be described thus: BPGM Synthase Assay. Type of assay: biochemical. The settings on record: Table 6 additional results; read-out: huBPGM: synthase Enzyme IC50. A digest of the protocol:
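BPGM (5 nM) with GAPDH (0.4 U/mL) was incubated with compound for 30 min at RT in pH 7.4 Tris buffer with 3.23 mM KH2PO4 and 1 mM DTT. Reaction ran 60 min with NAD, 3PG and GAP (substrate solution 2 mM, 20 μM and 800 μM). After koningic acid stop, NADH fluorescence was read, then resorufin from diaphorase/resazurin coupling.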

Assay [1] concerns the target human Bisphosphoglycerate mutase (hBPGM) (Homo sapiens (Human), UniProt P07738). The assay can be described thus: BPGM Phosphatase Assay. Type of assay: biochemical. Particulars: Table 6 additional results; read-out: huBPGM: phosphatase Enzyme EC50. The procedure: Solutions of the test compounds were then added to the plate and the DMSO content was normalized across the plate. The plate was incubated at RT for 15 min. Next, the substrate 2,3-BPG (5 μL) was added to all the wells, and the plate was sealed and incubated for 24 hr at RT. After incubation, BIOMOL green dye (40 μL) was added to all the wells, the plate was shaken to mix, and the plate was incubated at RT for 20-30 min.

The IC50 is the concentration needed to halve the response being measured. Broadly, the EC50 is the concentration needed to bring the measured effect to its halfway point.

The structures appear in SMILES notation. Where only a bound is given, the exact number is not on record here.

Sequence of human Bisphosphoglycerate mutase (hBPGM) (P07738 whole entry): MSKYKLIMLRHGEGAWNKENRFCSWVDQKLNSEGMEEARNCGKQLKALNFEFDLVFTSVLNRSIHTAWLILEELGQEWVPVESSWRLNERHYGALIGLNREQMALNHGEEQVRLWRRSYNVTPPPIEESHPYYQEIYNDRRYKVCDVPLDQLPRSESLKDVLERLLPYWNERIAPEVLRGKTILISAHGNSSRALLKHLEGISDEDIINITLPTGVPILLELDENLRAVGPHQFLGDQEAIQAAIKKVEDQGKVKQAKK
Sequence of hBPGM (P07738 whole entry, looked up): as the sequence (P07738 whole entry) above

Consider `COC(=O)NCc1nc(C)c(-c2csc(-c3cc(O)c(C(=O)O)cn3)n2)s1` [Example 207], for which the IC50 on hBPGM turned out to be 280 nM. Moreover, the EC50 in assay [1] was 340 nM.

Turning to `Cc1ccc(Cc2nc(C)c(-c3csc(-c4cc(O)c(C(=O)O)cc4F)c3)s2)cn1` [Example 98], the IC50 at hBPGM turned out to be 170 nM. In addition, in assay [1], the EC50 was found to be 100 nM.

As for `Cc1nc(CNC(=O)c2cccc(C#N)n2)sc1-c1csc(-c2cc(O)c(C(=O)O)cc2F)n1` [Example 180], the IC50 at hBPGM was determined as 28 nM. Moreover, in assay [1], the EC50 is 20 nM.

Consider `Cc1nc(Cc2ccn(C)n2)sc1-c1cccc(-c2ccc(C(=O)O)c(O)c2)c1` [Example 253], for which the IC50 on hBPGM is 190 nM. Moreover, in assay [1], the EC50 is 150 nM.

On to `Cc1nc(C)c(-c2cccc(-c3cc(O)c(C(=O)O)cc3F)n2)s1` [Example 259], for which the IC50 on hBPGM stood at 570 nM. Besides, the EC50 in assay [1] was > 25000 nM.

Regarding `CC(=O)NCc1nc(C)c(-c2cccc(-c3ccc(C(=O)O)c(O)c3)c2)s1` [Example 278], the IC50 on hBPGM amounted to 900 nM. In assay [1], the EC50 worked out at 2100 nM.

For the compound `Cc1nc(Cc2ccccn2)sc1-c1cccc(-c2ccc(C(=O)O)c(O)c2)c1` [Example 282], the IC50 on hBPGM was found to be 750 nM. The EC50 in assay [1] came to 110 nM.

`COC(=O)NCc1nc(C)c(-c2csc(-c3cc(O)c(C(=O)O)cc3F)c2)s1` [Example 161]: the IC50 on hBPGM worked out at 59 nM. In addition, the EC50 in assay [1] was found to be 79 nM.

For `Cc1nc(Cn2cccn2)sc1-c1csc(-c2cc(O)c(C(=O)O)cc2F)c1` [Example 229], on hBPGM, the IC50 was determined as 190 nM. Also, the EC50 in assay [1] amounted to 30 nM.

Consider `Cc1nc(COc2ncccn2)sc1-c1cccc(-c2ccc(C(=O)O)cc2)n1` [Example 95], for which the IC50 on hBPGM is 280 nM. Further, the EC50 in assay [1] is 2100 nM.

For the compound `Cc1nc(C)c(-c2cc(-c3cc(O)c(C(=O)O)cc3F)sn2)s1` [Example 183], the IC50 on hBPGM was found to be 660 nM. Besides, the EC50 in assay [1] was 280 nM.

As for `COC(=O)NCc1nc(C)c(-c2csc(-c3cc(O)c(C(=O)NCC(=O)O)cc3F)n2)s1` [Example 191], at hBPGM, the IC50 came to 780 nM. The EC50 in assay [1] turned out to be 570 nM.

`Cc1nc(COc2ncccn2)sc1-c1cccc(-c2c[nH]c(C(=O)O)c2)n1` [Example 76]: on hBPGM, the IC50 worked out at 3500 nM. Moreover, the EC50 in assay [1] was > 25000 nM.

Take `Cc1nc(CNc2ccn(C)n2)sc1-c1csc(-c2cc(O)c(C(=O)O)cc2F)n1` [Example 221]: at hBPGM, the IC50 worked out at 90 nM. Moreover, in assay [1], the EC50 was 35 nM.

For the compound `Cc1nc(CNC(=O)c2cccnn2)sc1-c1csc(-c2cc(O)c(C(=O)O)cc2F)n1` [Example 197], the concentration for half-maximal inhibition (IC50) at hBPGM was 24 nM. In assay [1], the EC50 worked out at 220 nM.

As for `Cc1nc(CNC(=O)C2COC2)sc1-c1cccc(-c2ccc(C(=O)O)c(O)c2)c1` [Example 247], the IC50 at hBPGM came to 1000 nM. Besides, in assay [1], the EC50 is 3900 nM.

Regarding `Cc1nc(Cc2ccccc2)sc1-c1cccc(-c2ccc(C(=O)O)c(O)c2)c1` [Example 289], the IC50 on hBPGM was determined as 1200 nM. For the same compound, the EC50 in assay [1] was 130 nM.

With `COC(=O)N[C@@H](C)c1nc(C)c(-c2csc(-c3cc(O)c(C(=O)O)cc3F)n2)s1` [Example 177], at hBPGM, the IC50 turned out to be 59 nM. For the same compound, the EC50 in assay [1] is 160 nM.

For `Cc1nc(CNC(=O)c2ccccc2)sc1-c1csc(-c2cc(O)c(C(=O)O)cc2F)n1` [Example 212], the IC50 on hBPGM was 160 nM. In addition, in assay [1], the EC50 came to 100 nM.

As for `Cc1nc(NCC(=O)N(C)C)sc1-c1csc(-c2cc(O)c(C(=O)O)cc2F)n1` [Example 178], at hBPGM, the IC50 was 200 nM. In assay [1], the EC50 came out at 3100 nM.

In the case of `Cc1nc(CNC(=O)N(C)C)sc1-c1csc(-c2cc(O)c(C(=O)O)cc2F)n1` [Example 226], the IC50 at hBPGM is 56 nM. Also, the EC50 in assay [1] came to 110 nM.

For `Cc1ccc(Cc2nc(C)c(-c3cccc(-c4ccc(C(=O)O)c(O)c4)c3)s2)cn1` [Example 257], the IC50 on hBPGM was 360 nM. Besides, the EC50 in assay [1] amounted to 160 nM.

Consider `Cc1nc(CNC2CCOCC2)sc1-c1cccc(-c2ccc(C(=O)O)cc2)c1` [Example 51], for which the IC50 at hBPGM came to 21000 nM. In addition, the EC50 in assay [1] amounted to 4300 nM.

Consider `Cc1nc(CNCC(C)(C)C)sc1-c1csc(-c2cc(O)c(C(=O)O)cc2F)n1` [Example 147], for which the half-maximal inhibitory concentration (IC50) at hBPGM was 610 nM. In addition, the EC50 in assay [1] stood at 50 nM.

In the case of `COC(=O)NCc1nc(C)c(-c2cc(-c3cc(O)c(C(=O)O)cc3F)sn2)s1` [Example 168], the IC50 at hBPGM is 370 nM. Further, the EC50 in assay [1] is 530 nM.

With `Cc1nc(CNc2ncccn2)sc1-c1cccc(-c2ccc(C(=O)O)cc2)c1` [Example 80], on hBPGM, the IC50 came to 220 nM. In addition, in assay [1], the EC50 was 1700 nM.

As for `Cc1nc(CNC(=O)c2cccnn2)sc1-c1csc(-c2cc(O)c(C(=O)O)cc2F)n1` [Example 171], at hBPGM, the IC50 came to 28 nM. Moreover, in assay [1], the EC50 turned out to be 30 nM.

As to `Cc1nc(CN)sc1-c1csc(-c2ccc(C(=O)O)c(O)c2)n1` [Example 230], the IC50 on hBPGM turned out to be 4400 nM. The EC50 in assay [1] is > 25000 nM.

In the case of `Cc1nc(Cc2ccncc2)sc1-c1cccc(-c2ccc(C(=O)O)c(O)c2)c1` [Example 281], on hBPGM, the IC50 turned out to be 730 nM. Further, the EC50 in assay [1] turned out to be 120 nM.

For `Cc1cccc(OCc2nc(C)c(-c3cccc(-c4ccc(C(=O)O)c(O)c4)c3)s2)n1` [Example 269], the IC50 at hBPGM amounted to 2000 nM. In assay [1], the EC50 came to 270 nM.

On to `Cc1nc(Cc2ccn(C)n2)sc1-c1csc(-c2ccc(C(=O)O)c(O)c2)n1` [Example 189], for which the IC50 on hBPGM amounted to 120 nM. Besides, in assay [1], the EC50 came out at 330 nM.

Take `Cc1nc(CNC(=O)C2CC2)sc1-c1cccc(-c2ccc(C(=O)O)c(O)c2)c1` [Example 276]: the IC50 at hBPGM was 480 nM. Also, in assay [1], the EC50 was 590 nM.

Take `Cc1nc(Cc2cccnc2)sc1-c1csc(-c2cc(O)c(C(=O)O)cc2F)c1` [Example 143]: the IC50 on hBPGM was determined as 200 nM. For the same compound, the EC50 in assay [1] is 80 nM.

Consider `Cc1nc(C)c(-c2nsc(-c3cc(O)c(C(=O)O)c(F)c3F)n2)s1` [Example 134], for which the IC50 on hBPGM was found to be 1000 nM. Also, in assay [1], the concentration giving a half-maximal response (EC50) turned out to be 340 nM.

Regarding `Cc1nc(CNS(C)(=O)=O)sc1-c1csc(-c2cc(O)c(C(=O)O)cc2F)n1` [Example 224], on hBPGM, the IC50 is 260 nM. The EC50 in assay [1] is 300 nM.

As to `COC(=O)NCc1nc(C)c(-c2csc(-c3cc(O)c(C(=O)O)cc3Cl)n2)s1` [Example 211], the IC50 on hBPGM stood at 100 nM. Further, the EC50 in assay [1] was 190 nM.

For `Cc1nc(Cc2ccn(C)n2)sc1-c1csc(-c2ccc(C(=O)O)c(O)c2)c1` [Example 216], at hBPGM, the IC50 was found to be 190 nM. The EC50 in assay [1] was determined as 200 nM.

`Cc1nc(COc2ccccn2)sc1-c1cccc(-c2cc(O)c(C(=O)O)cc2F)n1` [Example 164]: the IC50 at hBPGM amounted to 170 nM. Further, the EC50 in assay [1] was determined as 70 nM.

As for `Cc1nc(CNC2CCCOC2)sc1-c1cccc(-c2ccc(C(=O)O)cc2)c1` (stereo not drawn) [Example 52], the IC50 at hBPGM stood at 16000 nM. The EC50 in assay [1] is > 25000 nM.

On to `Cc1nc(CNC(=O)CCN(C)C)sc1-c1csc(-c2cc(O)c(C(=O)O)cc2F)n1` [Example 115], for which the IC50 on hBPGM worked out at 670 nM. In assay [1], the EC50 was 180 nM.

As to `Cc1nc(Cc2cccnc2)sc1-c1cccc(-c2ccc(C(=O)O)c(O)c2)c1` [Example 273], the IC50 at hBPGM was 390 nM. In addition, in assay [1], the EC50 was 170 nM.

For `Cc1nc(N)sc1-c1csc(-c2cc(O)c(C(=O)O)cc2F)n1` [Example 210], the IC50 at hBPGM came out at 930 nM. The EC50 in assay [1] amounted to 830 nM.
